Laboratory results from US20260008775A1, “AZOLE MODULATORS OF CHOLESTEROL BIOSYNTHESIS AND THEIR USE FOR PROMOTING REMYELINATION” (GENENTECH, INC., priority 2022, published 2026).

Key:
[1] = molecular target: human emopamil binding protein and human 7-dehydrocholesterol reductase (hEBP-DHCR7) (Homo sapiens (Human), UniProt Q15125); test: hEBP-DHCR7 radioligand binding assay (filter binding, membranes of co-expressing HEK293 cells); conditions: competition with [3H] radioligand, 8 doses 0.06 to 5000 nM, Ki calculated from IC50
Sequence of human emopamil binding protein and human 7-dehydrocholesterol reductase (hEBP-DHCR7) (Q15125 whole entry): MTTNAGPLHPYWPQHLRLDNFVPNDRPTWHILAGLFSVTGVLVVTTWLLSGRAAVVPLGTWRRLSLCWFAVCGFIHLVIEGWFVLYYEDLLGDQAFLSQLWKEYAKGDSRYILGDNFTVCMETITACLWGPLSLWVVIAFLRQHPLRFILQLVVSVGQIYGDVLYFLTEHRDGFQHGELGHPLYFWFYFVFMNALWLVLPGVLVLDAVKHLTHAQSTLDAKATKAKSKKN
Protocol: Membrane Preparation: human emopamil binding protein and human 7-dehydrocholesterol reductase co-expressing cells were generated by transient transfecting host human embryonic kidney (HEK) 293 cells with 2 DNA constructs containing each protein's coding sequence. Cells were suspension cultured at 37° C. with 5% CO2 in […] 293 Expression Medium (Thermofisher). Whole cell membrane was prepared by harvesting the cell pellet, adding cold membrane buffer (50 mM Tris, pH7.5, 1× Roche COMPLETE EDTA-free protease inhibitor cocktail) 10 times volume of the cell pellets weight, lysing cell pellet on ice by using Dounce homogenizer, spinning at 200 g 4° C. for 15 min, collecting supernatant and spinning again at 25000 g 4° C. for 50 min, transferring pellet to Dounce homogenizer, re-suspending pellet by homogenizing in membrane buffer on ice to reach ˜25 mg/mL, then keeping whole cell membrane aliquots at −80° C.
Compounds were prepared in a 96-well U bottom plate (Corning Cat #7007) using an Echo550 machine and 10 mM compound DMSO stock solution, followed by an 8-dose 5-fold serial dilutions protocol with final testing compound concentration ranging from 0.06 to 5000 nM, with DMSO back fill to 100 nL/well and n=2. […] The UniFilter-96 GF/B plates (PerkinElmer Cat #6005177) were pre-treated by adding 50 μl/well of 0.3% (v/v) Polyethylenimine (PEI) (branched, Sigma Cat #408727) to UniFilter-96 GF/B plates. The plates were sealed and incubated at 4° C. for 3 hrs. Then, the plates were washed with ice-cold assay buffer 3 times. The radioligand binding assay was prepared by adding assay buffer diluted hEBP-DHCR7 membrane at 66.7 µg/ml×150 μl/well into the 96-well compound plate to reach 10 μg membrane per well. Then, the assay buffer diluted [3H]—(S)-6-(2-Methyl-3-(6-(trifluoromethyl)pyridin-3-yl)propyl)-2-thia-6-azaspiro[3.4]octane 2,2-dioxide (Moravek, Cat #MT-1003106) was added at 25 nM×50 μl/well. Following this, the plate was centrifuged at 1000 rpm for 30 secs. The plate was then sealed and agitated at 600 rpm at 22° C. for 5 min, and then incubated at 22° C. for 3 hrs. The incubation was stopped by transferring the binding solution to the pre-treated UniFilter-96 GF/B plate, vacuum filtrated, and then washed four times with ice-cold assay buffer. Following this, the plates were dried at 37° C. for 45 min. The plates were then sealed at the bottom. 40 µl/well of scintillation cocktail was added to the plates. A MicroBeta2 microplate counter was then used to read the plate and analyze the data. For reference and test compounds, the results are expressed as % Inhibition, using the normalization equation: N=100−100×(U−C2)/(C1−C2), where U is the unknown value, C1 is the average of high controls, and C2 is the average value of low controls.

[2] = test system: zymostenol accumulation (EBP) in EpiSC-derived OPCs; test: GC/MS-based sterol profiling, zymostenol accumulation in EpiSC-derived OPCs; type: cell-based, mouse; conditions: Mus musculus, 24 h, EpiSC-derived OPCs, 24 hr, 8 doses from 0.15 nM to 333 nM; read-out: Mouse Zymostenol GCMS EC50
Protocol: To assess effects of treatments on OPCs, all treatments were assayed in two or more independent platings of epiblast stem cell-derived OPCs (EpiSC). EpiSC-derived OPCs were obtained using in vitro differentiation protocols and culture conditions described previously (Najm et al, 2011, Nature Methods). OPCs were expanded and frozen down in aliquots. OPCs were thawed into growth conditions for at least one passage before use in further assays.
Sterols were monitored using a modified Folch wash protocol (Hubler et al, 2018, Nature). EpiSC-derived OPCs were plated at 100,000 cells per well in PO- and laminin-coated 96-well plates in N2B27 media without growth factors. After 24 hours, cells were rinsed with saline and plates were frozen. Cholesterol-d7 standard was then added to each well before drying under nitrogen stream and derivatization with 55 μl of bis(trimethylsilyl) trifluoroacetamide. After derivatization, 2 μl were analyzed by gas chromatography/mass spectrometry using an Agilent 5973 Network Mass Selective Detector equipped with a 6890 gas chromatograph system and a HP-5MS capillary column (30 m×0.25 mm×[…]). Samples were analyzed in full scan mode using electron impact ionization; ion fragment peaks were integrated to calculate sterol abundance, and quantitation was relative to cholesterol-d7. The following ion fragments were used to quantitate each metabolite: cholesterol-d7 (465), FF-Mas (482), cholesterol (368), zymostenol (458), zymosterol (456), Desmosterol (456, 343), 7-dehydrocholesterol (456, 325), lanosterol (393), lathosterol (458), 14-dehydrozymostenol (456, 351). […] All standards were obtained from Avanti Polar Lipids unless otherwise indicated. Calibration curves were generated by injecting varying concentrations of sterol standards and maintaining a fixed amount of cholesterol-D7. For normalized zymostenol accumulation results, the total amount of zymostenol measured after drug treatment was divided by the total amount of zymostenol accumulated after 24 hr treatment with 100 nM positive control reference.

| Structure (SMILES) | Ki [1] [nM] | EC50 [2] [nM] |
| --- | --- | --- |
| COCCN1CCN([C@@H]2CC[C@@H](c3nc(-c4ccc(C(F)(F)F)nc4)nn3C(C)C)C2)CC1 [Compound 82, 1-((1R,3R)-3-(1-Isopropyl-3-(6-(trifluoromethyl)pyridin-3-yl)-1H-1,2,4-triazol-5-yl)cyclopentyl)-4-(2-methoxyethyl)piperazine] | 87 | 280 |
| CC(C)n1nc(-c2cncc(C(F)(F)F)n2)cc1[C@H]1[C@@H]2C[C@H](N3CCOCC3)C[C@@H]21 [Compound 108, 4-((1R,3r,5S,6r)-6-(1-Isopropyl-3-(6-(trifluoromethyl)pyrazin-2-yl)-1H-pyrazol-5-yl)bicyclo[3.1.0]hexan-3-yl)morpholine] | 87.8 | 62 |
| CC(C)n1nc(-c2cc(C(F)(F)F)ccn2)nc1[C@@H]1CC[C@@H](N2CCOCC2)C1 (single isomer, unassigned) [27*] |  | 141 |
| CC(C)n1nc(-c2cncc(C(F)(F)F)c2)cc1[C@H]1[C@@H]2CC(N3CCOC[C@H]3C)C[C@@H]21 (single isomer, unassigned) [44*] | 65 | 62 |
| CC(C)n1nc(-c2cncc(C(F)(F)F)c2)nc1[C@@H]1CC[C@H](N2CCOCC2)C1 (single isomer, unassigned) [Compound 117*] | 34.6 | 13.5 |
| COCCN1CCN([C@H]2CC[C@H](c3cc(-c4ccc(C(F)(F)F)nc4)nn3C(C)C)C2)CC1 (single isomer, unassigned) [92*] | 77.6 | 252 |
| CC(C)n1nc(-c2ccnc(C(F)(F)F)n2)cc1[C@H]1[C@@H]2C[C@@H](N3CCOC[C@H]3C)C[C@@H]21 [Compound 102, (R)-4-((1R,3s,5S,6S)-6-(1-Isopropyl-3-(2-(trifluoromethyl)pyrimidin-4-yl)-1H-pyrazol-5-yl)bicyclo[3.1.0]hexan-3-yl)-3-methylmorpholine] | 73 | 55 |
| CC(C)n1nc(-c2ccc(C(F)(F)F)nc2)cc1[C@@H]1CC[C@@H](N2CCN(CCO)CC2)C1 (single isomer, unassigned) [86*] | 31.2 | 28.7 |
| CC(C)n1nc(-c2cccc(C(F)(F)F)n2)nc1[C@H]1CC[C@H](N2CCOC[C@@H]2C)CC1 (single isomer, unassigned) [78*] |  | > 333 |
| CC(C)n1nc(-c2cnc(C(F)(F)F)nc2)nc1[C@H]1CC[C@H](N2CCOCC2)C1 [Compound 94, 4-((1S,3S)-3-(1-Isopropyl-3-(2-(trifluoromethyl)pyrimidin-5-yl)-1H-1,2,4-triazol-5-yl)cyclopentyl)morpholine] | 243 | 187 |
| CC(C)n1nc(-c2cncc(C(F)(F)F)c2)cc1[C@H]1CC[C@@H](N2CCCOCC2)C1 (single isomer, unassigned) [64*] | 15.6 | 2.75 |
| CC(C)n1nc(-c2cncc(C(F)(F)F)c2)nc1[C@H]1[C@@H]2C[C@@H](N3CCOC[C@@H]3C)C[C@@H]21 [Compound 121, (S)-4-((1R,3s,5S,6R)-6-(1-Isopropyl-3-(5-(trifluoromethyl)pyridin-3-yl)-1H-1,2,4-triazol-5-yl)bicyclo[3.1.0]hexan-3-yl)-3-methylmorpholine] | 564 | 193 |
| CC(C)n1nc(-c2cccc(C(F)(F)F)n2)nc1[C@H]1CC[C@@H](N2CCOC[C@H]2C)CC1 (single isomer, unassigned) [81*] |  | 27.3 |
| CC(C)n1nc(-c2cccc(C(F)(F)F)n2)nc1[C@H]1CC[C@@H](N2CCOC[C@@H]2C)CC1 (single isomer, unassigned) [79*] |  | 23.1 |

The remaining lines, values ahead:

| Ki [1] [nM] | EC50 [2] [nM] | Structure (SMILES) |
| --- | --- | --- |
| 30.8 | 6.79 | CC(C)n1nc(-c2cncc(Cl)c2)nc1[C@H]1CC[C@@H](N2CCOC[C@@H]2C)C1 [Compound 126, (S)-4-((1R,3S)-3-(3-(5-Chloropyridin-3-yl)-1-isopropyl-1H-1,2,4-triazol-5-yl)cyclopentyl)-3-methylmorpholine] |
| 58.2 | 13.4 | CC[C@@H]1CN([C@@H]2CC[C@@H](c3nc(-c4cnc(C(F)(F)F)nc4)nn3C(C)C)C2)CCO1 [Compound 153, (R)-2-Ethyl-4-((1R,3R)-3-(1-isopropyl-3-(2-(trifluoromethyl)pyrimidin-5-yl)-1H-1,2,4-triazol-5-yl)cyclopentyl) morpholine] |
| 23.2 | 2.79 | CC[C@@H]1CN([C@@H]2CC[C@H](c3nc(-c4cncc(Cl)c4)nn3C(C)C)C2)CCO1 [Compound 129, (R)-4-((1R, 3S)-3-(3-(5-Chloropyridin-3-yl)-1-isopropyl-1H-1,2,4-triazol-5-yl)cyclopentyl)-2-ethylmorpholine] |
| 118 | 16.6 | CC[C@H]1CN([C@@H]2CC[C@H](c3nc(-c4ccc(C(F)(F)F)nc4)nn3C(C)C)C2)CCO1 [Compound 128, (S)-2-Ethyl-4-((1R,3S)-3-(1-isopropyl-3-(6-(trifluoromethyl)pyridin-3-yl)-1H-1,2,4-triazol-5-yl)cyclopentyl)morpholine] |
| 388 | 229 | CC(C)n1nc(-c2ccc(C(F)(F)F)nc2)nc1[C@H]1CC[C@H](N2CCO[C@H](CF)C2)C1 (single isomer, unassigned) [Compound 168] |
| 11.3 | 0.94 | CC[C@@H]1CN([C@@H]2CC[C@H](c3nc(-c4cnc(C(F)(F)F)c(F)c4)nn3C(C)C)C2)CCO1 [Compound 146, (R)-2-Ethyl-4-((1R,3S)-3-(3-(5-fluoro-6-(trifluoromethyl)pyridin-3-yl)-1-isopropyl-1H-1,2,4-triazol-5-yl)cyclopentyl)morpholine] |
| 465 | 221 | CC[C@H]1CN([C@H]2CC[C@@H](c3nc(-c4cnc(C(F)(F)F)nc4)nn3C(C)C)C2)CCO1 [Compound 154, (S)-2-Ethyl-4-((1S,3R)-3-(1-isopropyl-3-(2-(trifluoromethyl)pyrimidin-5-yl)-1H-1,2,4-triazol-5-yl)cyclopentyl)morpholine] |
| 1740 | 14.5 | CC[C@H]1CN([C@@H]2CC[C@H](c3nc(-c4cnc(C(F)(F)F)c(F)c4)nn3C(C)C)C2)CCO1 [Compound 147, (S)-2-Ethyl-4-((1R,3S)-3-(3-(5-fluoro-6-(trifluoromethyl)pyridin-3-yl)-1-isopropyl-1H-1,2,4-triazol-5-yl)cyclopentyl)morpholine] |
| 51 | 59.2 | CC(C)n1nc(-c2cnc(F)c(C(F)(F)F)c2)nc1[C@@H]1CC[C@H](N2CCOCC2)C1 (single isomer, unassigned) [Compound 157*] |
| 505 | 129 | CC(C)n1nc(-c2cnc(C(F)(F)F)nc2)nc1[C@@H]1CC[C@@H](N2CCO[C@@H](C)C2)C1 [Compound 151, (S)-4-((1R,3R)-3-(1-Isopropyl-3-(2-(trifluoromethyl)pyrimidin-5-yl)-1H-1,2,4-triazol-5-yl)cyclopentyl)-2-methylmorpholine] |
